Reference: patent US20250304535A1, “KAT6 Inhibitors” (BeiGene Switzerland GmbH, priority 2024, published 2025)

How the values were obtained:
[1] = target: Recombinant human KAT6A protein (497-780) (Homo sapiens (Human), UniProt Q92794); assay: KAT6A biochemical TR-FRET assay; conditions: histone H4 peptide 2000 nM, AcCoA 300 nM, enzyme 5 nM
Experimental: Enzymatic reactions of KAT6A and KAT6B were performed using Fluorescence Resonance Energy Transfer (TR-FRET) assay, which measures acetylation of a synthetic, biotinylated histone-H4 peptide by the KAT6A and KAT6B enzymes. Recombinant human KAT6A protein (497-780) were expressed in BL21 cell using an E. coli expression system. Recombinant human KAT6B protein (657-1069) was expressed in sf9 cell using a baculovirus expression system. […] Acetyl coenzyme A was purchased from Sigma-Aldrich (#A-2056).
Testing for the inhibition activities of various compounds disclosed herein was carried out at room temperature in assay buffer containing 100 mM Tris/HCl Ph7.8, 15 mM NaCl, 0.01% chicken egg white albumin, 1 mM DTT and 0.01% Tween-20. Compounds in DMSO were dispensed into wells of a black, 384-well plate (Corning 4514) using ECHO555 (Beckman). The final concentration ranges of the test compounds were 0.0625-1,000 nM, 0.625-10,000 nM, or 0.313-5,000 nM. Five μL of KAT6A or KAT6B enzyme solution were added to wells, and the plate was incubated for 1 hour at room temperature (rt). After incubation for 1 hour at rt, 5 μL H4 and AcCoA substrate solutions were added to the wells to initiate reaction, and the plate was incubated. After 2 hours reaction, 5 μL detection reagent were added to the wells, and the plate was incubated for 2 hours. After two hours incubation, detection reagent containing 5 nM Anti-histone H4 antibody (ABCAM #ab177790), 100 μM formic acid (sigma #06473-100ML), 0.1 test/μL streptavidin-XL665 (PerkinElmer #610SAXLG), 0.05 test/μL PAb anti-rabbit IgG-Eu (PerkinElmer μ61PARKLA) was added to the wells. TR-FRET was measured on a microplate reader (PHERAstar FSX, BMG labtech). […] In Table 6, I≤5 nM, 5 nM<II≤50 nM.

[2] = target: Recombinant human KAT6B protein (657-1069) (Homo sapiens (Human), UniProt Q8WYB5); assay: KAT6B biochemical TR-FRET assay; conditions: histone H4 peptide 1000 nM, AcCoA 100 nM, enzyme 5 nM
Sequence of Recombinant human KAT6B protein (657-1069) (Q8WYB5 657-1069): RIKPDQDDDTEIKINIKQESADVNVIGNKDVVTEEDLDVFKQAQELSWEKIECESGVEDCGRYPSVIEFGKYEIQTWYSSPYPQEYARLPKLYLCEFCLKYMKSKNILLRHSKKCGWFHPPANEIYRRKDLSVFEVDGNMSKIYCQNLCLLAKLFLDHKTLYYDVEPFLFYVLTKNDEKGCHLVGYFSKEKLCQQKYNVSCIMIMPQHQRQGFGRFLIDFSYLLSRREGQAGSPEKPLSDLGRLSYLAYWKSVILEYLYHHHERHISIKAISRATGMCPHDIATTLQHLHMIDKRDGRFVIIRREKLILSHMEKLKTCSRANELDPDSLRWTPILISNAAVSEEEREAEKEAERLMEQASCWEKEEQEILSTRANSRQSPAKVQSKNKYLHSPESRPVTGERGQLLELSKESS
Experimental: Enzymatic reactions of KAT6A and KAT6B were performed using Fluorescence Resonance Energy Transfer (TR-FRET) assay, which measures acetylation of a synthetic, biotinylated histone-H4 peptide by the KAT6A and KAT6B enzymes. Recombinant human KAT6A protein (497-780) were expressed in BL21 cell using an E. coli expression system. Recombinant human KAT6B protein (657-1069) was expressed in sf9 cell using a baculovirus expression system. Histone H4 peptide (SEQ ID NO: 1—[…]-GGK-Biotin), which was used as substrate, was synthesized by GL Biochem, Shanghai, China. Acetyl coenzyme A was purchased from Sigma-Aldrich (#A-2056).
Testing for the inhibition activities of various compounds disclosed herein was carried out at room temperature in assay buffer containing 100 mM Tris/HCl Ph7.8, 15 mM NaCl, 0.01% chicken egg white albumin, 1 mM DTT and 0.01% Tween-20. Compounds in DMSO were dispensed into wells of a black, 384-well plate (Corning 4514) using ECHO555 (Beckman). The final concentration ranges of the test compounds were 0.0625-1,000 nM, 0.625-10,000 nM, or 0.313-5,000 nM. Five μL of KAT6A or KAT6B enzyme solution were added to wells, and the plate was incubated for 1 hour at room temperature (rt). After incubation for 1 hour at rt, 5 μL H4 and AcCoA substrate solutions were added to the wells to initiate reaction, and the plate was incubated. After 2 hours reaction, 5 μL detection reagent were added to the wells, and the plate was incubated for 2 hours. After two hours incubation, detection reagent containing 5 nM Anti-histone H4 antibody (ABCAM #ab177790), 100 μM formic acid (sigma #06473-100ML), 0.1 test/μL streptavidin-XL665 (PerkinElmer #610SAXLG), 0.05 test/μL PAb anti-rabbit IgG-Eu (PerkinElmer μ61PARKLA) was added to the wells. TR-FRET was measured on a microplate reader (PHERAstar FSX, BMG labtech). The IC50s were calculated based on inhibition of enzyme activity in the presence of increasing concentrations of test compounds, and the results are shown in Table 6. In Table 6, I≤5 nM, 5 nM<II≤50 nM.

[3] = test system: histone H3K23 acetylation in U-2 OS cells; assay: Histone H3 lysine 23 acetylation assay in U-2 OS cells (high content analysis); format: cell-based; conditions: Homo sapiens, U2OS, 24 hrs exposure, H3K23ac level
Experimental: Assay B: Histone H3 lysine 23 Acetylation Assay
Compounds were tested for their capacity to suppress the histone H3K23 acetylation in the following high content analysis assay.
The cell line U-2 OS (ATCC HTB-96) was seeded at a density of 2000 cells per well in black 384 well cell culture/imaging microplates in 45 μl McCoy's 5A medium with […]. After overnight incubation in 37° C., 5% CO2 incubator, cells were then treated with a 9-point dilution series of compounds and a blank control group with medium containing 0.1% DMSO.
Following a 24 hrs exposure to the compounds, the cells were fixed with 4% immunohistochemical fixative for 20 mins at room temperature, washed with DPBS with 2% fetal bovine serum, and permed with Perm Buffer III for 30 min on ice, washed with DPBS with 2% fetal bovine serum. Then the cells were blocked with Odyssey blocking buffer containing 0.1% Tween 20. 20 ul Anti-Histone H3 (acetyl K23) antibody (Abcam, ab177275) in odyssey blocking buffer containing 0.1% Tween20 was added and incubated overnight at 4° C. After incubation, the cells were washed for 3 times and a secondary antibody Anti-rabbit IgG (H+L), F(ab′)2 Fragment (Alexa Fluor® 647 Conjugate) (CST, 4414S) were added into cells for one hour. The cells were washed and 1 ug/ml DAPI (Thermo, 62248) were added for 10 min. Then cells were washed and read on the PerkinElmer Operetta CLS high content analysis system. The nuclei were identified by DAPI and H3K23ac level was calculated from the Alexa Fluor 647 intensity in the nuclei. Inhibition rate of H3K23ac was calculated as the mean intensity of cells per well relative to blank controls on the same plate.

Sequence of Recombinant human KAT6A protein (497-780) (Q92794 497-780): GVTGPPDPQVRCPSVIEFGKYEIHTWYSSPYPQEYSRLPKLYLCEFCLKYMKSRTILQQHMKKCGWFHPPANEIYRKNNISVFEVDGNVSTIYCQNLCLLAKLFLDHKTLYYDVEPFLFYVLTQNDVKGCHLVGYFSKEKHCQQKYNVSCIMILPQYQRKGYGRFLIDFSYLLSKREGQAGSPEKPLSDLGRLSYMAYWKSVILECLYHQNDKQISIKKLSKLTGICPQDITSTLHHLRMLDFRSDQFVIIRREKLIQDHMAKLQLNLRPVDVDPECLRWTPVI

SMILES	IC50 [1] [nM]	IC50 [2] [nM]	IC50 [3] [nM]
COc1cc(C(=O)NS(=O)(=O)c2c(OC)ccc3c2OCC3(C)C)ccc1Cn1cccn1 [Example C49, 4-((1H-pyrazol-1-yl)methyl)-3-methoxy-N-((6-methoxy-3,3-dimethyl-2,3-dihydrobenzofuran-7-yl)sulfonyl)benzamide]	≤ 5	≤ 5	≤ 10
COc1ccc(C(C)(C)C)cc1S(=O)(=O)NC(=O)c1cc(Br)c(Cn2cccn2)cc1F [Example C10, 4-((1H-pyrazol-1-yl)methyl)-5-bromo-N-((5-(tert-butyl)-2-methoxyphenyl)sulfonyl)-2-fluorobenzamide]	≤ 5	≤ 5	≤ 10
COc1ccc(N2CCC(OC)CC2)cc1S(=O)(=O)NC(=O)c1ccc(Cn2cccn2)c(C2CC2)c1 [Example C17, 4-((1H-pyrazol-1-yl)methyl)-3-cyclopropyl-N-((2-methoxy-5-(4-methoxypiperidin-1-yl)phenyl)sulfonyl)benzamide]	≤ 5	≤ 5	10 to 100
C=Cc1cc(C(=O)NS(=O)(=O)c2nc(C(C)(C)C)ccc2OC)ccc1Cn1cccn1 [Example C16, 4-((1H-pyrazol-1-yl)methyl)-N-((6-(tert-butyl)-3-methoxypyridin-2-yl)sulfonyl)-3-vinylbenzamide]	≤ 5	≤ 5	≤ 10
COc1ccc2c(c1S(=O)(=O)NC(=O)c1ccc(Cn3cccn3)c(C3CC3)n1)OC(C)(C)C2 [Example C46, 5-((1H-pyrazol-1-yl)methyl)-6-cyclopropyl-N-((6-methoxy-2,2-dimethyl-2,3-dihydrobenzofuran-7-yl)sulfonyl)picolinamide]	≤ 5	≤ 5	≤ 10
COc1ccc(C(C)(C)C)nc1S(=O)(=O)NC(=O)c1ccc(Cn2cccn2)c(C2CC2)n1 [Example C48, 5-((1H-pyrazol-1-yl)methyl)-N-((6-(tert-butyl)-3-methoxypyridin-2-yl)sulfonyl)-6-cyclopropylpicolinamide]	≤ 5	≤ 5	≤ 10
COc1cccc(OC)c1S(=O)(=O)NC(=O)c1ccc(Cn2cccn2)c(OC)n1 [Example C69, 5-((1H-pyrazol-1-yl)methyl)-N-((2,6-dimethoxyphenyl)sulfonyl)-6-methoxy-picolinamide]	–	≤ 5	≤ 10

More lines, now with the values ahead:

IC50 [1] [nM]	IC50 [2] [nM]	IC50 [3] [nM]	SMILES
≤ 5	≤ 5	≤ 10	COc1ccc2c(c1S(=O)(=O)NC(=O)c1ccc(Cn3cccn3)c(OC)n1)OCC21CCOCC1 [Example C71, 5-((1H-pyrazol-1-yl)methyl)-6-methoxy-N-((6-methoxy-2′,3′,5′,6′-tetrahydro-2H-spiro[benzofuran-3,4′-pyran]-7-yl)sulfonyl) picolinamide]
≤ 5	≤ 5	≤ 10	COc1ccc(C(C)(C)C)cc1S(=O)(=O)NC(=O)c1ccc(Cn2cccn2)c(C)c1 [Example C3, 4-((1H-pyrazol-1-yl)methyl)-N-((5-(tert-butyl)-2-methoxyphenyl)sulfonyl)-3-methylbenzamide]
≤ 5	≤ 5	≤ 10	COc1cc(C(=O)NS(=O)(=O)c2nc(C(C)(C)C)ccc2OC)ccc1Cn1ccc(C)n1 [Example C33, N-((6-(tert-butyl)-3-methoxypyridin-2-yl)sulfonyl)-3-methoxy-4-((3-methyl-1H-pyrazol-1-yl)methyl)benzamide]
≤ 5	≤ 5	≤ 10	COc1ccc(C(C)(C)C)nc1S(=O)(=O)NC(=O)c1ccc(Cn2cccn2)c(C(F)F)c1 [Example C36, 4-((1H-pyrazol-1-yl)methyl)-N-((6-(tert-butyl)-3-methoxypyridin-2-yl)sulfonyl)-3-(difluoromethyl)benzamide]
≤ 5	≤ 5	10 to 100	COc1ccc(C(C)(C)C)nc1S(=O)(=O)NC(=O)c1ccc(Cn2cccn2)c(CC(F)F)c1 [Example C31, 4-((1H-pyrazol-1-yl)methyl)-N-((6-(tert-butyl)-3-methoxypyridin-2-yl)sulfonyl)-3-(2,2-difluoroethyl)benzamide]
